# Results reported in patent publication US12440537B1, “Compositions and methods for treating skin diseases, disorders, or conditions” (Washington University, priority 2020, dated 2025).
# Ends that are not written are not given here.
# Key:
# vitamin D receptor [1] = molecular target: T1, vitamin D receptor (Mus musculus, UniProt P48281); test: Nuclear localization of vitamin D receptor in MC903-treated keratinocytes; type: cell-based; set-up: endogenous in cells; host or cells: Ivl-/- keratinocytes; settings: MC903 treated lvl-/- keratinocytes
# T1 sequence (P48281 1-422): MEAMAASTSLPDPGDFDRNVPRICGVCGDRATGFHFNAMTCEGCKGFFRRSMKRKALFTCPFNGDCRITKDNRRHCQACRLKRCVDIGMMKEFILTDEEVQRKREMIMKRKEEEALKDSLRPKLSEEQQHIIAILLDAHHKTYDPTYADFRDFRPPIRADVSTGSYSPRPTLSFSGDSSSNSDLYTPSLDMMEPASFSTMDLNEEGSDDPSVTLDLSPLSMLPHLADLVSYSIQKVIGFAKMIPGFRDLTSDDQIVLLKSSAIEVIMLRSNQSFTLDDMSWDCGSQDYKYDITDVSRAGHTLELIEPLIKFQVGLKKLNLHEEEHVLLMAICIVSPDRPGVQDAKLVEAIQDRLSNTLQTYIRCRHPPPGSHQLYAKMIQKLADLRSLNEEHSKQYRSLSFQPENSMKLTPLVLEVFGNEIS
# vitamin D receptor [2] = molecular target: T1, vitamin D receptor; test: MC903 vitamin D receptor-mediated skin inflammation in WT and Involucrin (lvl) -/- mice; type: in vivo; set-up: from tissue; host or cells: skin of WT and Ivl-/- mice (in vivo)
# Experimental: Here, vitamin D receptor-mediated skin inflammation was induced in Involucrin (lvl) -/- mice and vitamin D receptor function in the epidermis was evaluated (see e.g., FIG. 14). It was shown that vitamin D receptor-induced inflammation is reduced in lvl^-/- skin (see e.g., FIG. 15). […] Basophils are a major source of IL-4 and IL-6 expression that drives skin inflammation (see e.g., FIG. 21).
# keratinocytes [3] = test: IVL peptide protection against keratinocyte cell (detergent) lysis; type: cell-based; settings: keratinocytes treated with IVL late repeat peptide
# keratinocytes [4] = test: Keratinocyte barrier function after IVL peptide treatment; type: cell-based; settings: keratinocytes treated with IVL peptide
Molecule,nuclear localization of vitamin D receptor (vitamin D receptor [1]),CD4+ T cells (vitamin D receptor [2]; MC903-treated lvl-/- skin),cell type populations (scRNA-seq) (vitamin D receptor [2]; MC903-treated lvl-/- skin),"vitamin D receptor induced inflammation (vitamin D receptor [2]; MC903 treatment, lvl-/- skin compared to WT)",protection against keratinocyte cell lysis (keratinocytes [3]),protection against keratinocyte cell lysis (keratinocytes [3]; listed as IVL late repeat peptide),protection against keratinocyte cell lysis (keratinocytes [3]; listed as “late” repeat IVL peptide),keratinocyte barrier function (keratinocytes [4])
C=C1/C(=C\C=C2/CCC[C@]3(C)[C@@H]([C@H](C)/C=C/[C@@H](O)C4CC4)CC[C@@H]23)C[C@@H](O)C[C@@H]1O [MC903],loss of nuclear localization of vitamin D receptor,significantly decreased,"Decreased basophils, macrophages, CD4^+ T cells, and basal II keratinocytes, and increased suprabasal keratinocytes",significantly reduced as early as day 6,–,–,–,–
ELPEQQEGQL (ELPEQQEGQL-NH2) [IVL peptide],–,–,–,–,protects against keratinocyte cell lysis,protects the keratinocyte from detergent lysis,resistant to detergent lysis,improves keratinocyte barrier function
